Reference: the NIST ThermoML archive (doi:10.1016/j.jct.2014.02.009)

Settings: 100 kPa, Liquid; for viscosity: Falling or rolling sphere viscometry; for speed of sound: Sing-around technique in a fixed-path interferometer; for mass density: Vibrating tube method

CCCCCC(=O)O.O=C1CCCCCN1 [ε-caprolactam hexanoate]
Settings | mass density [kg/m3] | speed of sound [m/s] | viscosity [mPa·s]
293.15 K | 998.59 | 1472.7 | 42
298.15 K | 994.69 | 1456 | 30.85
303.15 K | 990.78 | 1439 | 23.4
308.15 K | 986.88 | 1421.9 | 18.11
313.15 K | 982.97 | 1404.8 | 14.25
318.15 K | 979.04 | 1387.8 | 11.59
323.15 K | 975.15 | 1370.8 | 9.44
328.15 K | 971.24 | 1353.4 | 7.91
333.15 K | 967.34 | 1336.8 | 6.64

O=C1CCCCCN1.O=CO [ε-caprolactam formate]
Settings | mass density [kg/m3] | speed of sound [m/s] | viscosity [mPa·s]
293.15 K | 1087.05 | 1552 | 30.96
298.15 K | 1082.87 | 1536 | 23.92
303.15 K | 1078.69 | 1520.2 | 18.86
308.15 K | 1074.51 | 1504.4 | 15.14
313.15 K | 1070.32 | 1488.5 | 12.36
318.15 K | 1066.13 | 1472.8 | 10.24
323.15 K | 1061.95 | 1457.9 | 8.59
328.15 K | 1057.77 | 1441.1 | 7.3
333.15 K | 1053.59 | 1425.1 | 6.27

CC(=O)O.O=C1CCCN1 [γ-butyrolactam acetate]
Settings | mass density [kg/m3] | speed of sound [m/s] | viscosity [mPa·s]
293.15 K | 1099.8 | 1514.5 | 9.36
298.15 K | 1095.35 | 1496.7 | 7.84
303.15 K | 1090.91 | 1480.9 | 6.66
308.15 K | 1086.47 | 1464 | 5.72
313.15 K | 1082.03 | 1447.2 | 4.96
318.15 K | 1077.57 | 1429.3 | 4.35
323.15 K | 1073.12 | 1412.5 | 3.83
328.15 K | 1068.69 | 1395.7 | 3.4
333.15 K | 1064.24 | 1379 | 3.06

O=C1CCCN1.O=CO [γ-butyrolactam formate]
Settings | mass density [kg/m3] | speed of sound [m/s] | viscosity [mPa·s]
293.15 K | 1140.78 | 1531.2 | 7.17
298.15 K | 1136.14 | 1515.7 | 6.14
303.15 K | 1131.51 | 1500 | 5.32
308.15 K | 1126.89 | 1484.4 | 4.64
313.15 K | 1122.25 | 1468.5 | 4.09
318.15 K | 1117.61 | 1452.9 | 3.63
323.15 K | 1112.99 | 1437.5 | 3.25
328.15 K | 1108.35 | 1422.1 | 2.92
333.15 K | 1103.72 | 1406.8 | 2.65

CCCCCC(=O)O.O=C1CCCN1 [γ-butyrolactam hexanoate]
Settings | mass density [kg/m3] | speed of sound [m/s] | viscosity [mPa·s]
293.15 K | 1018.78 | 1429.3 | 14.67
298.15 K | 1014.67 | 1412.8 | 12.13
303.15 K | 1010.57 | 1396.2 | 10.16
308.15 K | 1006.47 | 1379.6 | 8.63
313.15 K | 1002.37 | 1363.2 | 7.4
318.15 K | 998.27 | 1346.9 | 6.42
323.15 K | 994.17 | 1330.7 | 5.61
328.15 K | 990.08 | 1314.7 | 4.94
333.15 K | 985.98 | 1298.6 | 4.39

CC(=O)O.O=C1CCCCCN1 [ε-caprolactam acetate]
Settings | mass density [kg/m3] | speed of sound [m/s] | viscosity [mPa·s]
293.15 K | 1060.03 | 1523.1 | 39.81
298.15 K | 1055.92 | 1507 | 29.03
303.15 K | 1051.83 | 1489.7 | 21.92
308.15 K | 1047.74 | 1472.8 | 17.03
313.15 K | 1043.65 | 1456.1 | 13.68
318.15 K | 1039.56 | 1439.3 | 11.1
323.15 K | 1035.46 | 1422.6 | 9.19
328.15 K | 1031.37 | 1406 | 7.67
333.15 K | 1027.28 | 1389.5 | 6.48
